From ChEMBL document CHEMBL1158701, “Sesquiterpene phenylpropanoids from Ferula fukanensis and their nitric oxide production inhibitory effects” (J Nat Prod, 2005)
Active and inactive are the calls of the source. The calls are words filed in the database; no cut-off is given here.

Each compound was assayed on RAW264.7 (assay: Inhibition of LPS/IFNgamma -induced NO production in mouse RAW264.7 cells after 16 hrs). Details: RAW264.7, 16 h.
Format: functional, cell-based

IC50 [µM] | SMILES
6.7 | CC(C)=CC(=O)/C=C(\C)CCC[C@@]1(C)OC(=O)[C@H](C(=O)c2ccc(O)cc2O)[C@H]1C (relative stereo) [FUKANEDONE C]
27.8 | CC(C)=CC(=O)/C=C(/C)CCC[C@@]1(C)OC(=O)[C@H](C(=O)c2ccc(O)cc2O)[C@H]1C (relative stereo) [FUKANEDONE D]
76.2 | COc1ccc(C(=O)[C@H]2C(=O)O[C@](C)(CC/C=C(\C)Cc3cc(C)co3)[C@@H]2C)c(O)c1 (relative stereo) [FUKANEDONE E]
113 | CCCCOC(=O)C(=O)c1ccc(O)cc1O [FUKANEKETOESTER A]

What follows are compounds tested on RAW264.7 (assay: Inhibition of LPS/IFNgamma -induced NO production in mouse RAW264.7 cells at 30 ug/ml after 16 hrs). Details: not given.
Format: functional, cell-based

SMILES | Activity
CC(C)=CCC/C(C)=C/CC[C@]1(C)OC(=O)[C@H](C(=O)c2ccc(O)cc2O)[C@H]1C (relative stereo) | inactive
COc1ccc(C(=O)[C@H]2C(=O)O[C@](C)(CC/C=C(\C)CCC=C(C)C)[C@@H]2C)c(O)c1 (relative stereo) | inactive
